The record followed here is patent US8350027B2, “Dual-acting pyrazole antihypertensive agents” (Theravance, Inc., priority 2009, dated 2013).

Structures are written as SMILES.

The target of one experiment is T1, NEP enzyme (Homo sapiens, UniProt P08473).
T1 construct: purchased R&D Systems, Minneapolis, Minn; 1182-ZN
Nature of the experiment: NEP enzyme inhibition assay (fluorogenic peptide substrate). Format: biochemical. The conditions noted are these: values given as lower bounds; * = prodrugs, may not exhibit NEP activity in an in vitro assay; read-out: NEP pIC50 (converted). Here is the method:
B. In Vitro Assays for the Quantitation of Inhibitor Potencies (IC50) at Human and Rat NEP, and Human ACE
The inhibitory activities of compounds at human and rat NEP and human ACE were determined using in vitro assays as described below.
Recombinant human NEP and recombinant human ACE were obtained commercially (R&D Systems, Minneapolis, Minn., catalog numbers 1182-ZN and 929-ZN, respectively). The fluorogenic peptide substrate Mca-BK2 (Mca-Arg-Pro-Pro-Gly-Phe-Ser-Ala-Phe-Lys(Dnp)-OH; Johnson et al. (2000) Anal. Biochem. 286: 112-118) was used for the human NEP and ACE assays, and Mca-RRL (Mca-DArg-Arg-Leu-(Dnp)-OH; Medeiros et al. (1997) Braz. J. Med. Biol. Res. 30:1157-1162) was used for the rat NEP assay (both from Anaspec, San Jose, Calif.).
The assays were performed in 384-well white opaque plates at room temperature using the respective fluorogenic peptides at a concentration of 10 μM in assay buffer (50 mM Tris/HCl at 25° C., 100 mM NaCl, 0.01% Tween-20, 1 μM Zn, 0.025% BSA). […] The rat NEP enzyme preparation was used at a concentration that yielded quantitative proteolysis of 3 μM of Mca-RRL within 20 minutes at room temperature.
Test compounds were diluted to 12 concentrations from 10 μM to 20 pM in Assay Buffer. Assays were started by adding 25 μL of enzyme to 12.5 μL of test compound at each of the 12 concentrations. Test compounds were allowed to equilibrate with the enzyme for 10 minutes before 12.5 μL of the fluorogenic substrates were added to initiate the reaction. Reactions were terminated by the addition of 10 μL of 3.6% glacial acetic acid after 20 minutes of incubation.
For sulfhydryl-containing test compounds, the test compounds may be diluted in Assay Buffer containing a 400 μM concentration of tris(2-carboxyethyl)phosphine hydrochloride (Thermo Scientific, Rockford, Ill.) (TCEP). The test compounds are then incubated for 40 minutes at room temperature (to allow for dimer cleavage) before adding the enzyme. Test compounds are then allowed to equilibrate with the enzyme for 20 minutes before adding the fluorogenic substrates. Reactions are terminated as above.
Plates were read on a fluorometer with excitation and emission wavelengths set to 320 nm and 405 nm, respectively. Raw data (relative fluorescence units) were normalized to % activity from the average high readings (no inhibition, 100% enzyme activity) and average low readings (full inhibition, highest inhibitor concentration, 0% enzyme activity) using three standard NEP and ACE inhibitors, respectively. Nonlinear regression of the normalized data was performed using a one site competition model (GraphPad Software, Inc., San Diego, Calif.). Data were reported as pIC50 values.

The target in a further experiment is T2, human AT1 receptor (Homo sapiens, UniProt P30556).
T2 construct: expressed in transfected cells; host or cells: CHO-K1
T2 sequence (P30556 1-359): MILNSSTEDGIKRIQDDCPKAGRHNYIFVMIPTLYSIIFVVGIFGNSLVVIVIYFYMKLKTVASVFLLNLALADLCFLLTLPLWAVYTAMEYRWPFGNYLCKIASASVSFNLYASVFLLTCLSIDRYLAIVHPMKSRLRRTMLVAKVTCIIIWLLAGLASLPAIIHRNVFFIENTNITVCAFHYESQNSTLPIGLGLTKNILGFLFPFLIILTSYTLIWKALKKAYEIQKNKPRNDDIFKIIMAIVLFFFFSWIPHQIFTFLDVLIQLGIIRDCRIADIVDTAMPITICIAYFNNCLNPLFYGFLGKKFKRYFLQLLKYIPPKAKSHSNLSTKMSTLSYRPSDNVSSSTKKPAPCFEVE
Nature of the experiment: AT1 radioligand binding assay (displacement of [Eu]AngII). The conditions noted are these: membranes of CHO-K1 cells expressing cloned human AT1 receptor; values given as lower bounds; read-out: AT1 pKi (converted). On the procedure: A. AT1 and AT2 Radioligand Binding Assays
These in vitro assays were used to assess the ability of test compounds to bind to the AT1 and the AT2 receptors.
Membrane Preparation from Cells Expressing Human AT1 or AT2 Receptors
Chinese hamster ovary (CHO-K1) derived cell lines stably expressing the cloned human AT1 or AT2 receptors, respectively, were grown in HAM's-F12 medium supplemented with 10% fetal bovine serum, 10 μg/ml penicillin/streptomycin, and 500 μg/ml geneticin in a 5% CO2 humidified incubator at 37° C. AT2 receptor expressing cells were grown in the additional presence of 100 nM PD123,319 (AT2 antagonist). When cultures reached 80-95% confluence, the cells were washed thoroughly in PBS and lifted with 5 mM EDTA. Cells were pelleted by centrifugation and snap frozen in MeOH-dry ice and stored at −80° C. until further use.
For membrane preparation, cell pellets were resuspended in lysis buffer (25 mM Tris/HCl pH 7.5 at 4° C., 1 mM EDTA, and one tablet of Complete Protease Inhibitor Cocktail Tablets with 2 mM EDTA per 50 mL buffer (Roche cat.#1697498, Roche Molecular Biochemicals, Indianapolis, Ind.)) and homogenized using a tight-fitting Dounce glass homogenizer (10 strokes) on ice. The homogenate was centrifuged at 1000×g, the supernatant was collected and centrifuged at 20,000×g. The final pellet was resuspended in membrane buffer (75 mM Tris/HCl pH 7.5, 12.5 mM MgCl2, 0.3 mM EDTA, 1 mM EGTA, 250 mM sucrose at 4° C.) and homogenized by extrusion through a 20G gauge needle. Protein concentration of the membrane suspension was determined by the method described in Bradford (1976) Anal Biochem. 72:248-54. Membranes were snap frozen in MeOH-dry ice and stored at −80° C. until further use.
Ligand Binding Assay to Determine Compound Affinities for the Human AT1 and AT2 Angiotensin Receptors
Binding assays were performed in 96-well Acrowell filter plates (Pall Inc., cat.#5020) in a total assay volume of 100 μL with 0.2 μg membrane protein for membranes containing the human AT1 receptor, or 2 μg membrane protein for membranes containing the human AT2 receptor in assay buffer (50 mM Tris/HCl pH 7.5 at 20° C., 5 mM MgCl2, 25 μM EDTA, 0.025% BSA). Saturation binding studies for determination of Kd values of the ligand were done using N-terminally Europium-labeled angiotensin-II ([Eu]AngII, H-(Eu-N^1)-Ahx-Asp-Arg-Val-Tyr-Ile-His-Pro-Phe-OH; PerkinElmer, Boston, Mass.) at 8 different concentrations ranging from 0.1 nM to 30 nM. […] Drugs were dissolved to a concentration of 1 mM in DMSO and from there serially diluted into assay buffer. Non-specific binding was determined in the presence of 10 μM unlabeled angiotensin-II. Assays were incubated for 120 minutes in the dark, at room temperature or 37° C., and binding reactions were terminated by rapid filtration through the Acrowell filter plates followed by three washes with 200 μL ice cold wash buffer (50 mM Tris/HCl pH 7.5 at 4° C., 5 mM MgCl2) using a Waters filtration manifold. Plates were tapped dry and incubated with 50 μl DELFIA Enhancement Solution (PerkinElmer cat.#4001-0010) at room temperature for 5 minutes on a shaker. Filter-bound [Eu]AngII was quantitated immediately on a Fusion plate reader (PerkinElmer) using Time Resolved Fluorescence (TRF). Binding data were analyzed by nonlinear regression analysis with the GraphPad Prism Software package (GraphPad Software, Inc., San Diego, Calif.) using the 3-parameter model for one-site competition. The BOTTOM (curve minimum) was fixed to the value for nonspecific binding, as determined in the presence of 10 μM angiotensin II. Ki values for drugs were calculated from observed IC50 values and the Kd value of [Eu]AngII according to the Cheng-Prusoff equation described in Cheng et al. (1973) Biochem Pharmacol. 22 (23):3099-108. Selectivities of test compounds for the AT1 receptor over the AT2 receptor were calculated as the ratio of AT2Ki/AT1Ki. […]

T1 sequence (P08473 52-750 limits assumed): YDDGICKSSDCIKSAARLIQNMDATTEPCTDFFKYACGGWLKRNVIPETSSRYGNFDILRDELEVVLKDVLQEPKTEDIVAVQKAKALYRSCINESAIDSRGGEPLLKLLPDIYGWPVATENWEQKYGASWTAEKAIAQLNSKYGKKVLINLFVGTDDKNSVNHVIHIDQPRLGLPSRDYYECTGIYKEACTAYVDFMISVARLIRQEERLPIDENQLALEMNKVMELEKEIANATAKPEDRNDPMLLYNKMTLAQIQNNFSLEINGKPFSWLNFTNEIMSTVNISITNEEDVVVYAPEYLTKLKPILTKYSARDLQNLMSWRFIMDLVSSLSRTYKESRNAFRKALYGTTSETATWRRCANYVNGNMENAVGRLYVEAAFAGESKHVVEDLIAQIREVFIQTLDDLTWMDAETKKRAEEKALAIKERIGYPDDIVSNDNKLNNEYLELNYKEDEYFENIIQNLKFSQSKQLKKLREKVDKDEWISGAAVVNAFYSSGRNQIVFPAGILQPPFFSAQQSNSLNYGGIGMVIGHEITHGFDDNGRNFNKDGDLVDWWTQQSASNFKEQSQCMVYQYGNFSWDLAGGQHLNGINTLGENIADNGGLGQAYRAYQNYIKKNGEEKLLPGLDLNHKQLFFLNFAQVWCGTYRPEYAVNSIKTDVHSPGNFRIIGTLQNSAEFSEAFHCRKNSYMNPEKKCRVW

For the compound `CCCc1cc(C(=O)N[C@@H](CS)CC(C)C)nn1Cc1ccc(-c2ccccc2-c2nnn[nH]2)cc1F` [Example 3-3, 1-[3-Fluoro-2′-(1H-tetrazol-5-yl)biphenyl-4-ylmethyl]-5-propyl-1H-pyrazole-3-carboxylic acid ((R)-1-mercaptomethyl-3-methylbutyl)amide], the IC50 on NEP enzyme was not above 100 nM. The Ki on human AT1 receptor is not above 100 nM.

In the case of `CCCc1cc(C(=O)N[C@H](Cc2ccccc2)[C@@H](O)C(=O)OC)nn1Cc1ccc(-c2ccccc2-c2nnn[nH]2)cc1` [Example 3-12, (2R,3R)-2-Hydroxy-4-phenyl-3-({5-propyl-1-[2′-(1H-tetrazol-5-yl)-biphenyl-4-ylmethyl]-1H-pyrazole-3-carbonyl}amino)butyric acid methyl ester], the IC50 on NEP enzyme was not above 10000 nM. In addition, the Ki on human AT1 receptor is not above 10 nM.

`CCCc1cc(C(=O)N[C@@H](CC(=O)O)Cc2ccccc2Br)nn1Cc1ccc(-c2ccccc2-c2nnn[nH]2)nc1` [Example 14-4, (R)-4-(2-Bromophenyl)-3-[(5-propyl-1-{6-[2-(1H-tetrazol-5-yl)-phenyl]-pyridin-3-ylmethyl}-1H-pyrazole-3-carbonyl)amino]butyric acid]: on NEP enzyme, the IC50 is not above 100 nM. For the same compound, the Ki at human AT1 receptor was not above 10 nM.

On to `CCCc1cc(C(=O)N[C@@H](CS)Cc2ccccc2)nn1Cc1ccc(-c2ccccc2-c2nnn[nH]2)nc1` [Example 14-2, 5-Propyl-1-{6-[2-(1H-tetrazol-5-yl)phenyl]pyridin-3-ylmethyl}-1H-pyrazole-3-carboxylic acid ((R)-1-benzyl-2-mercaptoethyl)amide], for which the IC50 at NEP enzyme was not above 100 nM. The Ki at human AT1 receptor was not above 10 nM.

Consider `CCCc1cc(C(=O)N[C@H](Cc2ccccc2)[C@@H](O)C(=O)NO)nn1Cc1ccc(-c2ccccc2-c2nnn[nH]2)cc1` [Example 3-17, 1-((2′-(1H-tetrazol-5-yl)biphenyl-4-yl)methyl)-N-((2R,3R)-3-hydroxy-4-(hydroxyamino)-4-oxo-1-phenylbutan-2-yl)-5-propyl-1H-pyrazole-3-carboxamide], for which, on NEP enzyme, the IC50 is not above 100 nM. On human AT1 receptor, the Ki was not above 10 nM.

Consider `CCCc1cc(C(=O)N[C@@H](CS)Cc2ccccc2)nn1Cc1ccc(-c2ccccc2S(=O)(=O)NC(C)=O)c(F)c1` [Example 6-6, 1-(2′-Acetylsulfamoyl-2-fluorobiphenyl-4-ylmethyl)-5-propyl-1H-pyrazole-3-carboxylic acid ((R)-1-benzyl-2-mercaptoethyl)amide], for which the IC50 at NEP enzyme is not above 100 nM. For the same compound, the Ki at human AT1 receptor was not above 10 nM.

Turning to `CCOc1cc(C(=O)N[C@H](Cc2ccccc2)[C@@H](O)C(=O)O)nn1Cc1ccc(-c2ccccc2-c2nnn[nH]2)cc1F` [Example 3-8, (2R,3R)-3-({5-Ethoxy-1-[3-fluoro-2′-(1H-tetrazol-5-yl)biphenyl-4-ylmethyl]-1H-pyrazole-3-carbonyl}amino)-2-hydroxy-4-phenylbutyric acid], the IC50 at NEP enzyme was not above 1000 nM. Moreover, the Ki on human AT1 receptor was not above 100 nM.

With `CCCc1cc(C(=O)N[C@H](Cc2ccccc2)[C@@H](O)C(=O)O)nn1Cc1ccc(-c2ccccc2S(=O)(=O)NC(=O)c2cc(C)on2)cc1` [Example 7-5, (2R,3R)-2-Hydroxy-3-[(1-{2′[(5-methylisoxazole-3-carbonyl)sulfamoyl]biphenyl-4-ylmethyl}-5-propyl-1H-pyrazole-3-carbonyl)amino]-4-phenylbutyric acid], the IC50 on NEP enzyme was not above 1000 nM. The Ki at human AT1 receptor is not above 10 nM.

For `CCCc1cc(C(=O)N[C@H](Cc2ccccc2Cl)[C@@H](O)C(=O)O)nn1Cc1ccc(-c2ccccc2-n2nn[nH]c2=O)cc1` [Example 16-6, (2R,3R)-4-(2-Chlorophenyl)-2-hydroxy-3-({1-[2′-(5-oxo-4,5-dihydrotetrazol-1-yl)biphenyl-4-ylmethyl]-5-propyl-1H-pyrazole-3-carbonyl}amino)butyric acid], on NEP enzyme, the IC50 was not above 100 nM. In addition, at human AT1 receptor, the Ki is not above 100 nM.

As to `CCCc1cc(C(=O)N[C@@H](CC(=O)O)Cc2ccccc2Cl)nn1Cc1ccc(-c2ccccc2-c2nnn[nH]2)cn1` [Example 15-2, (R)-4-(2-Chlorophenyl)-3-[(5-propyl-1-{5-[2-(1H-tetrazol-5-yl)phenyl]pyridin-2-ylmethyl}-1H-pyrazole-3-carbonyl)amino]butyric acid], the IC50 at NEP enzyme was not above 1000 nM. In addition, the Ki on human AT1 receptor was not above 100 nM.

On to `CCCc1cc(C(=O)N[C@@H](CC(=O)O)Cc2ccccc2Cl)nn1Cc1cnc(-c2ccccc2-c2nnn[nH]2)nc1` [Example 18, (R)-4-(2-Chlorophenyl)-3-[(5-propyl-1-{2-[2-(1H-tetrazol-5-yl)phenyl]pyrimidin-5-ylmethyl}-1H-pyrazole-3-carbonyl)amino]butyric acid], for which, at NEP enzyme, the IC50 was not above 1000 nM. In addition, the Ki on human AT1 receptor was not above 100 nM.
